Test results reported in PubChem BioAssay (NCI).
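In this assay, cells in 96-well plates receive the compound at five concentrations for 48 hours. Endpoints are linearly interpolated between the surrounding concentrations. TGI denotes the concentration required for complete inhibition of growth.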

Key:
Assay in all cases: NCI anticancer screen, dose series, 48 h
T-47D breast = tested on: T-47D breast
NCI-H226 lung = tested on: NCI-H226 lung
SK-OV-3 ovarian = tested on: SK-OV-3 ovarian
OVCAR-8 ovarian = tested on: OVCAR-8 ovarian
SNB-75 CNS = tested on: SNB-75 CNS
UACC-257 melanoma = tested on: UACC-257 melanoma
HCC-2998 colon = tested on: HCC-2998 colon
IGROV1 ovarian = tested on: IGROV1 ovarian
SNB-19 CNS = tested on: SNB-19 CNS
BT-549 breast = tested on: BT-549 breast
DU-145 prostate = tested on: DU-145 prostate
SK-MEL-28 melanoma = tested on: SK-MEL-28 melanoma
RXF 393 renal = tested on: RXF 393 renal
NCI-H522 lung = tested on: NCI-H522 lung
SK-MEL-5 melanoma = tested on: SK-MEL-5 melanoma
RPMI-8226 leukemia = tested on: RPMI-8226 leukemia
SN12C renal = tested on: SN12C renal
MOLT-4 leukemia = tested on: MOLT-4 leukemia
MCF7 breast = tested on: MCF7 breast

Cc1ccc2nc(Cl)c(/C=N/N3C(=O)/C(=C/Cc4ccco4)N=C3c3ccccc3)cc2c1
TGI (T-47D breast): > 100 µM | TGI (NCI-H226 lung): > 100 µM | TGI (SK-OV-3 ovarian): > 100 µM | TGI (OVCAR-8 ovarian): > 68.2 µM | TGI (SNB-75 CNS): > 92.8 µM | TGI (UACC-257 melanoma): 71.8 µM | TGI (HCC-2998 colon): 75.8 µM | TGI (IGROV1 ovarian): 53.9 µM | TGI (SNB-19 CNS): > 90.9 µM | TGI (BT-549 breast): > 90.9 µM | TGI (DU-145 prostate): > 79.5 µM | TGI (SK-MEL-28 melanoma): > 100 µM | TGI (RXF 393 renal): > 100 µM | TGI (NCI-H522 lung): 74 µM | TGI (SK-MEL-5 melanoma): > 100 µM | TGI (RPMI-8226 leukemia): 61.8 µM | TGI (SN12C renal): > 69.6 µM | TGI (MOLT-4 leukemia): > 92 µM | TGI (MCF7 breast): > 93.9 µM

COc1cc(C2c3cc4c(cc3OC(O)C2C)OCO4)cc(OC)c1O (stereo not drawn)
TGI (T-47D breast): > 68.6 µM | TGI (NCI-H226 lung): 64.3 µM | TGI (SK-OV-3 ovarian): 55.7 µM | TGI (OVCAR-8 ovarian): > 100 µM | TGI (SNB-75 CNS): 26 µM | TGI (UACC-257 melanoma): > 100 µM | TGI (HCC-2998 colon): 49.5 µM | TGI (IGROV1 ovarian): > 100 µM | TGI (SNB-19 CNS): > 46.4 µM | TGI (BT-549 breast): > 100 µM | TGI (DU-145 prostate): > 100 µM | TGI (SK-MEL-28 melanoma): > 91.6 µM | TGI (RXF 393 renal): > 43 µM | TGI (NCI-H522 lung): 13.3 µM | TGI (SK-MEL-5 melanoma): > 51.6 µM | TGI (RPMI-8226 leukemia): > 100 µM | TGI (SN12C renal): > 75.3 µM | TGI (MOLT-4 leukemia): > 100 µM | TGI (MCF7 breast): > 100 µM

CC(=O)OCC(OC(C)=O)C(OC(C)=O)C(OC(C)=O)C(/C=N\Nc1nc2ccccc2c(=O)[nH]1)OC(C)=O (stereo not drawn)
TGI (T-47D breast): > 100 µM | TGI (NCI-H226 lung): > 100 µM | TGI (SK-OV-3 ovarian): > 100 µM | TGI (OVCAR-8 ovarian): > 100 µM | TGI (SNB-75 CNS): > 100 µM | TGI (UACC-257 melanoma): > 100 µM | TGI (HCC-2998 colon): > 100 µM | TGI (SNB-19 CNS): > 100 µM | TGI (BT-549 breast): > 100 µM | TGI (DU-145 prostate): > 100 µM | TGI (SK-MEL-28 melanoma): > 100 µM | TGI (RXF 393 renal): > 100 µM | TGI (NCI-H522 lung): > 100 µM | TGI (SK-MEL-5 melanoma): > 100 µM | TGI (RPMI-8226 leukemia): > 100 µM | TGI (SN12C renal): > 100 µM | TGI (MOLT-4 leukemia): > 100 µM | TGI (MCF7 breast): > 100 µM

CC1(c2nc3cc(Cl)c(Cl)cc3[nH]2)CCC(C(=O)O)C(C)(C)O1 (stereo not drawn)
TGI (T-47D breast): > 100 µM | TGI (NCI-H226 lung): > 100 µM | TGI (SK-OV-3 ovarian): > 100 µM | TGI (OVCAR-8 ovarian): > 100 µM | TGI (SNB-75 CNS): > 100 µM | TGI (UACC-257 melanoma): > 100 µM | TGI (HCC-2998 colon): > 100 µM | TGI (IGROV1 ovarian): > 100 µM | TGI (SNB-19 CNS): > 100 µM | TGI (BT-549 breast): > 100 µM | TGI (DU-145 prostate): > 100 µM | TGI (SK-MEL-28 melanoma): > 100 µM | TGI (RXF 393 renal): > 100 µM | TGI (NCI-H522 lung): > 100 µM | TGI (SK-MEL-5 melanoma): > 100 µM | TGI (RPMI-8226 leukemia): > 100 µM | TGI (SN12C renal): > 100 µM | TGI (MOLT-4 leukemia): > 100 µM | TGI (MCF7 breast): > 100 µM

O=C1/C(=C/c2ccc(O)cc2)CCc2ccccc21
TGI (T-47D breast): > 100 µM | TGI (NCI-H226 lung): 57.8 µM | TGI (SK-OV-3 ovarian): > 89.4 µM | TGI (OVCAR-8 ovarian): 73.5 µM | TGI (SNB-75 CNS): > 70.7 µM | TGI (UACC-257 melanoma): 35.8 µM | TGI (HCC-2998 colon): 43.6 µM | TGI (IGROV1 ovarian): > 76 µM | TGI (SNB-19 CNS): 50.7 µM | TGI (BT-549 breast): 41.4 µM | TGI (DU-145 prostate): 64.9 µM | TGI (SK-MEL-28 melanoma): 37 µM | TGI (RXF 393 renal): 35.1 µM | TGI (NCI-H522 lung): 5.61 µM | TGI (SK-MEL-5 melanoma): 32.5 µM | TGI (RPMI-8226 leukemia): 34.9 µM | TGI (SN12C renal): 38.1 µM | TGI (MOLT-4 leukemia): 12.4 µM | TGI (MCF7 breast): 82.4 µM

Cc1nn(C(=O)c2ccncc2)c2c1C(c1ccccc1O)SC(N)=N2 (stereo not drawn)
TGI (T-47D breast): > 10 µM | TGI (NCI-H226 lung): > 10 µM | TGI (SK-OV-3 ovarian): > 10 µM | TGI (OVCAR-8 ovarian): > 10 µM | TGI (SNB-75 CNS): > 10 µM | TGI (UACC-257 melanoma): > 10 µM | TGI (HCC-2998 colon): > 10 µM | TGI (IGROV1 ovarian): > 10 µM | TGI (SNB-19 CNS): > 10 µM | TGI (BT-549 breast): > 10 µM | TGI (DU-145 prostate): > 10 µM | TGI (SK-MEL-28 melanoma): > 10 µM | TGI (RXF 393 renal): > 10 µM | TGI (NCI-H522 lung): > 10 µM | TGI (SK-MEL-5 melanoma): > 10 µM | TGI (RPMI-8226 leukemia): > 10 µM | TGI (SN12C renal): > 10 µM | TGI (MOLT-4 leukemia): > 10 µM | TGI (MCF7 breast): > 10 µM
